This note sets out measurements from patent US20250064804A1, “COMBINATION THERAPY FOR TREATING ABNORMAL CELL GROWTH” (Verastem, Inc., priority 2021, published 2025).

Assay [1] deals with Human KRAS mutant pancreatic cancer cell lines stably expressing a tandem fluorescent GFP-LC3-RFP-LC3ΔG reporter. Description: Autophagic flux (GFP-LC3-RFP-LC3ΔG reporter, flow cytometry). Particulars: 1 μM avutometinib, 24 hours, vs vehicle (DMSO); all 3 cell lines tested; 2D conditions. In kind it is cell-based. The protocol: Human KRAS mutant pancreatic cancer cell lines stably expressing a tandem fluorescent GFP-LC3-RFP-LC3ΔG reporter were grown in 2D conditions. Briefly, cells were seeded in 96-well plates and after an overnight incubation (17-22 hours), cells were treated with 1 μM of the RAF/MEK clamp avutometinib (VS-6766) for 24 hours. Following treatment, cells were collected and changes in autophagic flux were measured by flow cytometry. Autophagic flux was quantified by calculating the ratio of RFP/GFP in cell lines tested. Autophagic flux was assessed in a panel of 3 human KRAS mutant pancreatic cancer cell lines stably expressing a tandem fluorescent GFP-LC3-RFP-LC3ΔG reporter (FIG. 1). […] In FIG. 1, human KRAS mutant pancreatic cancer cell lines stably expressing a tandem fluorescent GFP-LC3-RFP-LC3ΔG reporter were treated with vehicle (DMSO) or avutometinib for 24 hours. Following treatment, cells were collected and changes in autophagic flux were measured by flow cytometry. Autophagic flux was quantified by calculating the ratio of RFP/GFP in cell lines tested.

Assay [2] deals with human KRAS mutant pancreatic cancer cell lines. The experiment in a line: Proliferation assay (live cell counting) with Bliss synergy analysis. In kind it is cell-based. Particulars: 5 days, panel of 4 cell lines, 2D conditions. The protocol: Parental human KRAS mutant pancreatic cancer cell lines were grown in 2D conditions. Briefly, cells were seeded in 96-well plates and after an overnight incubation (17-22 hours), cells were treated with the RAF/MEK clamp avutometinib (VS-6766)+/− the autophagy pathway inhibitor chloroquine (CQ) or apilimod (AP) for 5 days. Following drug treatment, live cell counting was performed and plotted to quantify effects on proliferation. Bliss synergy analysis were performed to calculate synergy scores between avutometinib+chloroquine and avutometinib+apilimod.
Proliferation assays were performed to determine whether chloroquine (CQ) or apilimod (AP) augmented the anti-proliferative activity of avutometinib in a panel of 4 human KRAS mutant pancreatic cancer cell lines (FIG. 2). Following drug treatment, live cell counting was performed and plotted to quantify effects on proliferation. Heatmaps indicating BLISS synergy scores are shown (Red=synergy, white=additivity, green=antagonism).

In the case of `CNS(=O)(=O)Nc1nccc(Cc2c(C)c3ccc(Oc4ncccn4)cc3oc2=O)c1F` [avutometinib], the “increase of autophagic flux (ratio of RFP/GFP)” value in assay [1] is listed as “two-to six”. Also, the “Bliss synergy with apilimod in reducing cell viability” value in assay [2] (avutometinib + apilimod (AP)) is “synergistic”. The “Bliss synergy with chloroquine in reducing cell viability” value in assay [2] (avutometinib + chloroquine (CQ)) is “synergistic”.
